Tests used:
Assay type in all cases: physicochemical
[1] = Ceramide compatibility by differential scanning calorimetry (DSC): melting enthalpy and compatibility ratio; details: for Peak area / Melting enthalpy: DSC; for Compatibility ratio 104+NPS / Compatibility ratio 104+NPO: from total melting enthalpy; for Compatibility ratio 104+NPS / Enthalpy (J/g) NPS / Compatibility ratio 104+NPO / Enthalpy (J/g) NPO: by 104 Ratio; for Ratio: measured peak area / calculated theoretical value, PC-104 and NPS; for Enthalpy (J/g) NPS / Enthalpy (J/g) NPO: total melting enthalpy of mixed ceramides; for Enthalpy (J/g) NPS: 104 with NPS; for Melting enthalpy: total melting enthalpy of single unmixed ceramide; for Enthalpy (J/g) NPO: 104 with NPO
Protocol: Ceramide compatibility was evaluated through measurement of differential scanning calorimetry (DSC). It is known that a ceramide compatibility study through DSC measurement may be utilized when measurement is not performed by polythermal and isothermal methods, or when slurry density of a solution is high, but has almost never been utilized in a ceramide study. In prediction of solubility of indomethacin (IMC) in polymers such as hydroxypropyl methylcellulose (HPMC) and polyvinylpyrrolidone (PVP), it was also confirmed that solubility prediction of a DSC method is excellent in a combination of IMC and HPMC. Since confirming compatibility between ceramides is a situation of confirming solubility when two solid-phase substances are mixed, a DSC experiment is determined to be very suitable, and thus the present inventors confirmed compatibility by measuring enthalpy of each ceramide, predicting enthalpy of a binary mixture, and actually measuring the same. For DSC measurement, a Thermal Analysis System (differential scanning calorimetry) such as Discovery DSC 250 of TA Instruments was used. In a DSC graph, melting enthalpy was measured by obtaining a peak area, and a unit of the peak area was J/g. A compatibility ratio was calculated by comparing a peak area measurement result of a sample in which ceramides are mixed and a calculated theoretical value (calculated sum area). A compatibility ratio is a ratio indicating compatibility when two components are mixed, and may be used to evaluate whether two components are stable even when mixed and may maintain desired characteristics.. […]
A single sample in which PC-104 and ceramide NP are unmixed (10:0 or 0:10), and samples in which PC-104 and ceramide NP are mixed at ratios such as 1:9 to 9.99:0.01, were each made, a DSC peak area was measured, and an actually measured DSC peak area and a calculated theoretical value according to a ratio of PC-104 and ceramide NP were compared. For compatibility evaluation, a ceramide mixing ratio having a low compatibility ratio was confirmed.

[2] = as above; details: for Ratio: measured peak area / calculated theoretical value
[3] = Solubility of ceramide or ceramide mixture in pure ethanol (94.5% or more)
Text: Through Example 1, an effect of improvement of compatibility according to ceramide mixing confirmed through DSC measurement was confirmed. Accordingly, an effect of improvement of solubility was additionally confirmed. Specifically, solubility was confirmed as to how well the ceramide or the ceramide mixture dissolves in pure ethanol (94.5% or more).

[4] = PC-104 and NPS at stated weight mixing ratio
[5] = PC-104 and NPO at stated weight mixing ratio

Row | SMILES | Peak area [1, 4] [J/g] | Compatibility ratio 104+NPS [1] | Ratio [1] | Enthalpy (J/g) NPS [1] [J/g] | Melting enthalpy [1] [J/g] | Peak area [1, 5] [J/g] | Compatibility ratio 104+NPO [1] | Enthalpy (J/g) NPO [1] [J/g] | Ratio ([2]; PC-104 and NPO) | EtOH solubility (mg/uL) [3] | Peak area ([2]; DSC, PC-104 and NPM at stated weight mixing ratio) [J/g] | DSC enthalpy (J/g) of corresponding composition ([2]; PC-104 and NPM compositions of the solubility test) [J/g] | Calculated sum area ([2]; calculated theoretical value from the two unmixed ceramides, PC-104 and NPM) [J/g] | Compatibility ratio 104+NPM ([2]; from total melting enthalpy, by 104 Ratio) | Ratio ([2]; PC-104 and NPM) | Enthalpy (J/g) NPM ([2]; total melting enthalpy of mixed ceramides, 104 with NPM, by 104 Ratio) [J/g]
1 | CCCCCCCCCCCCCCCCCC(=O)NC(CO)C(O)C(O)CCCCCCCCCCCCCC (centres unmarked) [NPS, CERAMIDE NP(stearic acid)] | 114.6 | 1.00 | 1.00 | 114.6 | 114.6 | – | – | – | – | – | – | – | – | – | – | –
2 | CCCCCCCC/C=C\CCCCCCCC(=O)N[C@@H](CO)[C@H](O)[C@H](O)CCCCCCCCCCCCCC [NPO, CERAMIDE NP(oleic acid)] | – | – | – | – | 89.0 | 89.0 | 1.00 | 89.0 | 1.00 | – | – | – | – | – | – | –
3 | CCCCCCCCCCCCCCCC(=O)N(CCO)CC(O)CN(CCO)C(=O)CCCCCCCCCCCCCCC [PC-104, HYDROXYPROPYL BISPALMITAMIDE MEA] | 151.6 | 1.00 | 1.00 | 151.6 | 151.6 | 151.6 | 1.00 | 151.6 | 1.00 | about 0.04636 mg/uL | 151.6 | 151.6 | 151.6 | 1.00 | 1.00 | 151.6

Reference: patent EP4772164A1, “CERAMIDE MIXTURE FOR IMPROVING COMPATIBILITY” (Amorepacific Corporation, priority 2023, dated 2025)
